Experimental data: patent US7569568B2, “Cytokine inhibitors” (Boehringer Ingelheim Pharmaceuticals, Inc., priority 2002, dated 2009)

Row | melting point | Structure (SMILES)
1 | 198 °C | COC(=O)c1cn(-c2cc(C(=O)Nc3cc(C(C)(C)C)cc(NS(C)(=O)=O)c3OC)ccc2C)nn1 [Example 1, 1-[5-(5-tert-butyl-3-methanesulfonylamino-2-methoxy-phenylcarbamoyl)-2-methyl-phenyl]-1H-1,2,3-triazole-4-carboxylic acid methyl ester]
2 | 251 to 252 °C (dec.) | COC(=O)c1cn(-c2cc(C(=O)Nc3cc(C(C)(C)C)cc(NS(C)(=O)=O)c3OC)ccc2Cl)nn1 [Example 8, 1-[5-(5-tert-butyl-3-methanesulfonylamino-2-methoxyphenyl-carbamoyl)-2-chloro-phenyl]-1H-1,2,3-triazole-4-carboxylic acid methyl ester]
3 | 204 to 205 °C | COC(=O)c1nnn(-c2cc(C(=O)Nc3cc(C(C)(C)C)cc(NS(C)(=O)=O)c3OC)ccc2C)c1N [Example 9, 5-amino-1-[5-(5-tert-butyl-3-methanesulfonylamino-2-methoxy-phenylcarbamoyl)-2-methyl-phenyl]-1H-1,2,3-triazole-4-carboxylic acid methyl ester]
4 | 199 °C | COC(=O)c1cn(-c2cc(C(=O)Nc3cc(C(C)(C)C)cc(NS(C)(=O)=O)c3OC)cc(C)c2C)nn1 [Example 16, 1-[5-(5-tert-butyl-3-methanesulfonylamino-2-methoxy-phenylcarbamoyl)-2,3-dimethyl-phenyl]-1H-1,2,3-triazole-4-carboxylic acid methyl ester]
5 | 205 to 207 °C | COc1c(NC(=O)c2ccc(C)c(-n3cc(C(=O)NCc4ccccc4)nn3)c2)cc(C(C)(C)C)cc1NS(C)(=O)=O [Example 24, 1-[5-(5-tert-butyl-3-methanesulfonylamino-2-methoxy-phenylcarbamoyl)-2-methyl-phenyl]-1H-1,2,3-triazole-4-carboxylic acid benzylamide]
6 | 206 to 209 °C (dec.) | COc1c(NC(=O)c2cc(C)c(C)c(-n3cc(C(=O)NCCN4CCOCC4)nn3)c2)cc(C(C)(C)C)cc1NS(C)(=O)=O [Example 28, 1-[5-(5-tert-butyl-3-methanesulfonylamino-2-methoxy-phenylcarbamoyl)-2,3-dimethyl-phenyl]-1H-1,2,3-triazole-4-carboxylic acid (2-morpholin-4-yl-ethyl)-amide]
7 | > 250 °C | COc1c(NC(=O)c2ccc(C)c(-n3cc(C(N)=O)nn3)c2)cc(C(C)(C)C)cc1NS(C)(=O)=O [Example 66, 1-[5-(5-tert-butyl-3-methanesulfonylamino-2-methoxyphenyl-carbamoyl)-2-methyl-phenyl]-1H-1,2,3-triazole-4-carboxylic acid amide]
8 | 189 to 193 °C | COc1c(NC(=O)c2ccc(C)c(-n3nnc(C(=O)NCC(C)(C)C)c3N)c2)cc(C(C)(C)C)cc1NS(C)(=O)=O [Example 68, 5-amino-1-[5-(5-tert-butyl-3-methanesulfonylamino-2-methoxy-phenylcarbamoyl)-2-methyl-phenyl]-1H-1,2,3-triazole-4-carboxylic acid (2,2-dimethyl-propyl)-amide]
